Test results: publication PMC12526004, “Tiliroside Suppresses Uric Acid Production in Hepatocytes and Attenuates Purine-Induced Hyperuricemia in Male ICR Mice” (Molecules, 2025)

Columns and labels:
[1] = target: xanthine oxidase (bovine milk-derived) (Bos taurus, UniProt P80457); assay: XO inhibition assay in vitro (UV absorbance at 295 nm); type: biochemical; settings: xanthine substrate, 37 °C, mean of three independent experiments, read-out: IC50, direct XO inhibitory activity
Experimental: Prior to the assay, the compounds were freshly dissolved in a mixture of 30% dimethyl sulfoxide (DMSO; FUJIFILM Wako) and 70% phosphate buffer (100 mM, pH 7.5) to prepare test solutions at final concentrations ranging from 0 to 100 µM. In each well of a 96-well microplate, 50 µL of the test solution was mixed with 60 µL of buffer and 30 µL of xanthine oxidase (7.8 mU/mL, bovine milk-derived; Sigma-Aldrich). After preincubation at 37 °C for 10 min, the reaction was initiated by adding 60 µL of xanthine substrate (150 µM; FUJIFILM Wako). Absorbance at 295 nm was monitored for 30 min at 37 °C using a Spark 10 M microplate reader (Tecan Group Ltd., Männedorf, Switzerland). XO inhibitory activity was expressed as percentage inhibition, calculated using the formula Inhibition (%) = 100 × [1 − (B/A)], where A and B represent the absorbance increase in the absence and presence of the test compound, respectively. All measurements were performed in triplicate.
All experimental data are presented as mean ± SEM. […] Data from the in vitro XO inhibition assay are shown as mean values from three independent experiments. IC50 values were calculated by nonlinear regression analysis using dose–response curves generated from at least six concentrations of each compound. All statistical analyses were performed using GraphPad Prism version 10 (GraphPad Software, San Diego, CA, USA).

AML12 hepatocytes [2] = assay: Cell viability, WST-8 assay; type: cell-based; settings: concentrations up to 100 µM, 2 h
Experimental: The viability of AML12 cells was determined using the WST-8 assay provided in the Cell Counting Kit-8 (Dojindo Laboratories, Kumamoto, Japan). Cells were initially seeded at 5 × 10^3 cells per well in 96-well plates and maintained in DMEM/F-12 medium containing 10% (v/v) FBS for 72 h. To induce serum deprivation, the medium was replaced with serum-free DMEM/F-12, and cells were incubated for an additional 24 h. […] The treatment lasted for 2 h. Subsequently, cells were washed again with BSS and incubated with the WST-8 reagent for 1 h. Absorbance was measured at 490 nm using a microplate reader (MTP-310Lab; CORONA […] Co., Ltd., […], Japan). Cell viability was normalized to the DMSO control (0 μM), which was set at 100%.

XO = settings: read-out: IC50, XO inhibition (previous report); cited from earlier work
AML12 hepatocytes [3] = assay: UA production by AML12 cells stimulated with UA precursors; type: cell-based; settings: for maximum reduction of UA production: guanosine + inosine (GI mixture) 100 µM each, vs control (0 µM); for UA production: UA precursor xanthine
Experimental: AML12 hepatocytes used in this study were acquired from ATCC (CRL-2254), Manassas, VA, USA. AML12 cells were maintained in DMEM/F-12 (Life Technologies, Grand Island, NY, USA) supplemented with 10% (v/v) fetal bovine serum (FBS; Hyclone, Logan, UT, USA), recombinant human insulin (5 µg/mL), human transferrin (5 µg/mL), and dexamethasone (40 ng/mL), each obtained from FUJIFILM Wako, as well as selenium (3 ng/mL, Sigma-Aldrich) and penicillin–streptomycin mixed solution (100 U/mL penicillin and 100 µg/mL streptomycin, Nacalai Tesque), under a humidified atmosphere of 5% CO2 at 37 °C. Culture of AML12 hepatocytes and measurement of UA production were conducted following a previously reported protocol.Cells were seeded at a density of 1.0 × 10^5 cells per well in 24-well plates and cultured for 72 h in complete medium, followed by 24 h in serum-free DMEM/F-12. After serum deprivation, cells were rinsed once with calcium- and magnesium-free phosphate-buffered saline [PBS (–)] and incubated in 200 µL of balanced salt solution (BSS) containing […], 5 mM KCl, 1 mM MgCl2, 0.8 mM CaCl2, 25 mM NaHCO3, 1 mM NaH2PO4, 10 mM HEPES, and 5 mM glucose. […] The final concentration of DMSO in all samples was adjusted to 0.15%. After a 2-h incubation, 200 µL of the reaction mixture was collected for UA quantification. The UA concentration in BSS was used as an indicator of UA production. Subsequently, cells were washed with PBS (–) and lysed in 300 µL of buffer containing 50 mM Tris and 1 mM sodium phosphate (pH 7.5). Lysates were sonicated and centrifuged (12,000× g, 5 min, 4 °C), and the supernatants were used for protein quantification using the Pierce™ BCA Protein Assay Kit (Thermo Fisher Scientific Inc., Waltham, MA, USA). UA levels were measured using the uricase-based Uric Acid C-Test Wako (FUJIFILM Wako). UA production was expressed as nanomoles per 2 h per milligram of cellular protein (nmol/2 h/mg protein).

xanthine oxidase (bovine milk-derived), sequence (P80457 whole entry): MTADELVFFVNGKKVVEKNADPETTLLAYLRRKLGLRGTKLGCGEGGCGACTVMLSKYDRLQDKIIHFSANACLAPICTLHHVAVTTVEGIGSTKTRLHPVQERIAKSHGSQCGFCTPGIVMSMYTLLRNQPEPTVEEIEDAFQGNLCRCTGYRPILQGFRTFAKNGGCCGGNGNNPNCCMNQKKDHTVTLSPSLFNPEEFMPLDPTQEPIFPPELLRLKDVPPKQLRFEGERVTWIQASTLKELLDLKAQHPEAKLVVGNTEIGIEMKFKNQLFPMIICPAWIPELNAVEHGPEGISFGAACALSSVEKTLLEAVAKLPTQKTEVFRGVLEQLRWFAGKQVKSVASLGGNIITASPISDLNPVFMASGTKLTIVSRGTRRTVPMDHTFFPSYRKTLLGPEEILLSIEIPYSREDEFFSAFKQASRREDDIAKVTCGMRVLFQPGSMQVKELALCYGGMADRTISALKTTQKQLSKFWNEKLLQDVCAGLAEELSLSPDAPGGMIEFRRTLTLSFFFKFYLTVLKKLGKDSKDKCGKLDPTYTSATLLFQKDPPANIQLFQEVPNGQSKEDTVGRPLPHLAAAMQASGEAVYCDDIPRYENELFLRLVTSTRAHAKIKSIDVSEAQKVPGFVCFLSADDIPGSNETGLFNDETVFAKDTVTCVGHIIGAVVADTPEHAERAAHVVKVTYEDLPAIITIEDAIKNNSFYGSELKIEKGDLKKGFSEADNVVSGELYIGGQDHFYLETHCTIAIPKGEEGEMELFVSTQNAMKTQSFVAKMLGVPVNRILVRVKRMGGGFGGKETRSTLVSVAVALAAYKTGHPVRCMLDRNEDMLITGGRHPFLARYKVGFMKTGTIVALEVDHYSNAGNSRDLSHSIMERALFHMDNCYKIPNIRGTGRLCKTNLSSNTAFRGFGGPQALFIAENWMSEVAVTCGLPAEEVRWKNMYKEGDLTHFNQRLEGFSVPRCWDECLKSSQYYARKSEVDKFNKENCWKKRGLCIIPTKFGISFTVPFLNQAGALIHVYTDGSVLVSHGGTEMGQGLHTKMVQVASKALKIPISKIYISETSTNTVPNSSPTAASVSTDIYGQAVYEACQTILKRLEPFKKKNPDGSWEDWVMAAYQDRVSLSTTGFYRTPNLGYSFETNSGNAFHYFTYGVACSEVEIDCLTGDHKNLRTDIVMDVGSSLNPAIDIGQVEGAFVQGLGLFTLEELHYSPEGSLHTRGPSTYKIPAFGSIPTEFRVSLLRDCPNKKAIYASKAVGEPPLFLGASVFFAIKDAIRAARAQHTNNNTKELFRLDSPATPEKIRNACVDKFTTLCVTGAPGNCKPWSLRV

For `O=c1c(O[C@@H]2O[C@H](CO)[C@@H](O)[C@H](O)[C@H]2O)c(-c2ccc(O)cc2)oc2cc(O)cc(O)c12` [Astragalin, kaempferol-3-O-glucoside], the IC50 [1] is listed as 43 µM, the “cytotoxic effects (cell viability)” value (AML12 hepatocytes [2]) is listed as “did not exhibit any cytotoxic effects” and the IC50 (XO) is listed as 49.5 µM. For the same compound, the “maximum reduction of UA production” value (AML12 hepatocytes [3]; 100 µM, 2 h) was “approximately 13.3%”.
With `O=c1c(O)c(-c2ccc(O)cc2)oc2cc(O)cc(O)c12` [Kaempferol, kaempferol] the “cytotoxic effects (cell viability)” value (AML12 hepatocytes [2]) was “did not exhibit any cytotoxic effects”, the UA production (AML12 hepatocytes [3]; 10 µM) was 236.0 ± 7.2 nmol/2 h/mg protein and the UA production (AML12 hepatocytes [3]; 30 µM) was 101.1 ± 2.8 nmol/2 h/mg protein. For the same compound, the UA production (AML12 hepatocytes [3]; 100 µM) was 31.4 ± 0.5 nmol/2 h/mg protein and the “maximum reduction of UA production” value (AML12 hepatocytes [3]; 100 µM, 2 h) was roughly 97.2%.
With `O=C(O)/C=C/c1ccc(O)cc1` [p-Coumaric acid, p-coumaric acid] the IC50 [1] was greater than 100 µM, the “cytotoxic effects (cell viability)” value (AML12 hepatocytes [2]) was “did not exhibit any cytotoxic effects” and the “effect on UA production” value (AML12 hepatocytes [3]; concentrations up to 100 µM, GI mixture, 2 h) was “remained unaffected”.
